Assay results: US10426758B2, “Sibiriline derivatives for use for preventing and/or treating disorders associated with cellular necroptosis” (Institut National de la Sante et de la Recherche Medicale …, priority 2015, dated 2019)

Legend:
[1] = test system: L929sAhFas; experiment: Necroptosis induced by FasL + zVAD-fmk in L929sAhFas, intracellular ATP level; format: cell-based; settings: Mus musculus
Experimental: (§1) Besides, the IC50 of compound 3, compound 6 and necrostatin-1 (Nec-1) were determined in mouse or human cellular models of necroptosis induced by FasL+zVAD-fmk (a pan-caspase inhibitor) or TNF, and by using two cytotoxic assays (MTS Cell Proliferation assay or intracellular ATP level). As shown in the table below, compound 3 and compound 6 inhibit TNF-α or FasL-induced necroptosis with IC50 almost similar to those obtained with Nec-1.

[2] = test system: L929sAhFas; experiment: Necroptosis induced by FasL + zVAD-fmk in L929sAhFas, MTS Cell Proliferation assay; format: cell-based; settings: Mus musculus
Experimental: as §1

[3] = test system: Jurkat Fadd−/−; experiment: Necroptosis induced by TNF in Jurkat Fadd−/−, intracellular ATP level; format: cell-based; settings: Homo sapiens
Experimental: as §1

[4] = test system: Jurkat Fadd−/−; experiment: Necroptosis induced by TNF in Jurkat Fadd−/−, MTS Cell Proliferation assay; format: cell-based; settings: Homo sapiens
Experimental: as §1

[5] = test system: cytochrome P450 CYP1A enzymes in HepG2 cells; experiment: Ethoxyresorufin O-deethylase (EROD) activity in HepG2 cells; format: in vitro ADME, human; settings: 10 μM, 24 hours
Experimental: EROD activity corresponds to the O-deethylation of ethoxyresorufin and is mainly supported by cytochrome P450 CYP1A enzymes in HepG2 cells. Induction of CYP1A is mediated through the binding of xenobiotics to a cytosolic aryl hydrocarbon receptor AhR.
Human liver cancer cell lines HepG2 were treated with 10 μM of Sib, Nec-1 or Nec-1s for 24 hours. After treatment, HepG2 cells were incubated in PBS containing 5 mM ethoxyresorufin and kinetic reading was performed at 37° C. with spectrofluorometer (SpectraMax Gemini SX) over a 15 min period.

[6] = test system: murine model of acute hepatitis (concanavalin A-induced hepatitis); experiment: Concanavalin A-induced acute hepatitis in mice; format: in vivo, C57Bl/6 WT mice; settings: Nec-1s 6.25 mg/kg intraperitoneal 1 hour before 12 mg/kg Con A for 10 h
Experimental: We use a murine model of acute hepatitis (concanavalin A-induced hepatitis) that depends on necroptosis induction (Jouan-Lanhouet et al. Semin. Cell. Dev. Biol. 2014, 35, 2-13). Sib is diluted in 50% PBS/50% DMSO.
C57Bl/6 WT mice were pre-treated or not with 3, 6 or 9 mg/kg Sib or 6.25 mg/kg Nec-1s injected by intraperitoneal route 1 hour before treatment or not with 12 mg/kg Con A for 10 h (intravenous route) (50% PBS/50% DMSO, n=5; 50% PBS/50% DMSO+Con A, n=5; 3 mg/kg Sib+Con A, n=5; 6 mg/kg Sib+Con A, n=5; 9 mg/kg Sib+Con A, n=5; 6.25 mg/kg Nec-1s+Con A, n=5).

[7] = test system: Jurkat FADD-deficient I 2.1 cell line; experiment: Cell-based screening: TNF-α-induced necroptosis in Jurkat FADD-deficient cells, MTS viability assay; design: species or system human; settings: for EC50: Homo sapiens, Jurkat, necroptosis induced by 10 ng/ml TNF-α, 24 hours, MTS viability; for inhibition of necroptosis induced by TNF-α (figure legend): human T lymphocyte, Jurkat FADD deficient cell line
Description: TNF-α can induce necroptosis in Jurkat cells (human T lymphocytes) when FADD is deleted. This model was used to screen various libraries of chemical compounds for characterization of new inhibitors of cellular necroptosis. Details on this cell-based assay can be found in (Miao and Degterev, Methods Mol. Biol. 2009, 559, 79-93). The Jurkat FADD-deficient I 2.1 cell line used was purchased from ATCC and was maintained in RPMI 1640 medium (Gibco) containing Glutamax and 15% fetal calf serum (Life Technology). Necroptosis was induced by addition of 10 ng/ml of human recombinant TNF-α (Life Technology). Necrostatin-1 (Nec-1, Enzo Life Sciences) was used as model necroptosis inhibitor. Cells were maintained in 75 cm^2 flask and passed every 2 or 3 days. Chemical collections analysed were formatted in 96-well plates with 80 molecules per plates at 10 mM in 100% DMSO. For each collection plate, 2 cell plates were seeded (one necroptosis-induced with TNF-α and the other without TNF-α). Cells were seeded at 20000 cells/well, in 40 μl of medium, in a 96-well clear, flat bottom plate (CytoOne, Starlab) before treatment. Then, 40 μl of medium with or without TNF-α at 25 ng/ml were added to all wells in the corresponding plate. Immediately after TNF-α addition, 20 μl of diluted compound at 50 μM were added to the plates. Final concentration of each chemical compound was 10 μM at 0.1% DMSO. Four positives (Nec-1 at 10 μM final) and four negative (DMSO) controls were used in each plate to validate the assay. Cells were incubated at 37° C., 5% CO2 for 24 hours before performing MTS viability assay, described hereafter. Compounds were diluted before to treat cells. Liquid handling was performed using the Nimbus Microlab liquid handler (Hamilton Robotics) under microbiological safety workbench. The 10 mM compounds were diluted at 50 μM directly in cell medium.

[8] = biological target: T1, Human RIPK1 full length GST-tagged (Homo sapiens, UniProt Q13546); experiment: RIPK1 autophosphorylation assay; format: biochemical; settings: radioactively labeled RIPK1, [γ-32P] ATP, 30 minutes at 30° C.
T1 construct: Human RIPK1 full length GST-tagged; made in house; host or cells: Sf9 insect cells (Bac-to-Bac baculovirus system)
T1 sequence (Q13546 1-671): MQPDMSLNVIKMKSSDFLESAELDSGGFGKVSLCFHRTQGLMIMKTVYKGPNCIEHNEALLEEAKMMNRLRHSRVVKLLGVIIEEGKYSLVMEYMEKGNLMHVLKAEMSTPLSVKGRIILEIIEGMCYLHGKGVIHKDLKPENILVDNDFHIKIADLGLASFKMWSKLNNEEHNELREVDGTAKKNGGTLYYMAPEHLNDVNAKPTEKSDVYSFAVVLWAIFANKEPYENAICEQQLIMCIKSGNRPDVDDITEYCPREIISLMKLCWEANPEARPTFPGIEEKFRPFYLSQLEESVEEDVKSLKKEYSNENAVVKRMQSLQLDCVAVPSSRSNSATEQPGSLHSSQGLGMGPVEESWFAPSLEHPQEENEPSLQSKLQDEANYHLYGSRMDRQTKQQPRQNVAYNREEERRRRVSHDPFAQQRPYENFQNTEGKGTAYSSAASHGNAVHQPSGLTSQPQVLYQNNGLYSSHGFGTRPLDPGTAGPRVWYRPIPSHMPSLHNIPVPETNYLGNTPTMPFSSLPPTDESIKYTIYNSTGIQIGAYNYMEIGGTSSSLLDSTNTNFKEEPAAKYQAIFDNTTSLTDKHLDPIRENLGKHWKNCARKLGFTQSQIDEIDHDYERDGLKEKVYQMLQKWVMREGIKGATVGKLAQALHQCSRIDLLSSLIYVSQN
Experimental: Human RIPK1 full length GST-tagged was baculovirally expressed in Sf9 cells according to manufacturer's instructions (Bac-to-Bac expression system, Invitrogen) and purified using gluthation-sepharose beads (GE Healthcare). The elution was made in 50 mM Tris-HCl, pH 8.0 buffer supplemented with 30 mM reduced gluthatione (Sigma). The protocol used to detect the enzymatic activity is adapted from Miao and Degterev (Methods Mol. Biol. 2009, 559, 79-93). Kinase reaction was initiated mixing 5 μl of eluted RIPK1, 5 μl of 3× kinase reaction buffer (5 mM MOPS pH 7.2, 2.5 mM β-glycerophosphate, 4 mM MgCl2, 2.5 mM MnCl2, 1 mM EGTA, 0.4 mM EDTA, 50 μg/ml BSA, 0.05 mM DTT), 2 μl H2O and 3 μl of the tested molecule. The mixture was kept on ice for 10 minutes. During the incubation, the ATP solution was prepared by mixing 5 μl of 3× kinase reaction buffer, 4 μl H2O, 6 μl cold ATP at 150 μM and 2 μCi of [γ-^32P] ATP. Add the ATP solution and the tested inhibitor to the kinase and incubate for 30 minutes at 30° C. To stop the enzymatic reaction, 5 μl of loading buffer were added and solution was heated for 3 minutes at 95° C. 25 μl of each reaction were loaded per well in pre-cast NuPage 12% Bis-Tris gel (Life Technology). Autophosphorylated RIPK1 band was visualized on radiographic film after 6 h exposition at −80° C.

Row | Compound | EC50 [7] [nM] | inhibition of necroptosis induced by TNF-α (figure legend) [7] | other results
1 | CN1C(=O)C(Cc2c[nH]c3ccccc23)NC1=S (centres unmarked) [Nec-1, necrostatin-1, reference compound] | – | – | IC50 [1]: 10000 nM; IC50 [2]: 10000 nM; IC50 [3]: 1300 nM; IC50 [4]: 1300 nM
2 | CN1C(=O)NC(Cc2c[nH]c3c(Cl)cccc23)C1=O (centres unmarked) [Nec-1s, reference compound] | – | – | induction of EROD activity [5]: do not induce EROD activity; AST and ALT levels and protection from Con A-induced hepatitis [6]: has a tendency to decrease AST and ALT levels and to protect mice from Con A-induced hepatitis
3 | COc1ccc(-c2cc3cccnc3[nH]2)cc1 [compound 1, 2-(4-methoxyphenyl)-1H-pyrrolo[2,3-b]pyridine] | 400 | dose-dependent inhibition | –
4 | CCOc1ccc(-c2cc3cccnc3[nH]2)cc1 [compound 3, 2-(4-ethoxyphenyl)-1H-pyrrolo[2,3-b]pyridine] | 700 | dose-dependent inhibition | IC50 [1]: 2500 nM; inhibition of RIPK1 autophosphorylation [8]: dose-dependent inhibition; IC50 [3]: 1300 nM; IC50 [4]: 2700 nM
5 | CC(C)Oc1ccc(-c2cc3cccnc3[nH]2)cc1 [compound 4, 2-(4-isopropoxyphenyl)-1H-pyrrolo[2,3-b)pyridine] | 900 | dose-dependent inhibition | –
6 | c1cnc2[nH]c(-c3ccc4c(c3)OCCO4)cc2c1 [compound 5, 2-(1,4-benzodioxanyl)-1H-pyrrolo[2,3-b]pyridine] | 1400 | – | –
7 | c1cnc2[nH]c(-c3ccc4c(c3)OCO4)cc2c1 [compound 6] | 1800 | – | IC50 [2]: 10000 nM; IC50 [3]: 4000 nM; IC50 [4]: 7000 nM
8 | CCOc1ccc(-c2cc3c(Cl)ccnc3[nH]2)cc1 [compound 7, 4-chloro-2-(4-ethoxyphenyl)-1H-pyrrolo[2,3-b]pyridine] | 2000 | dose-dependent inhibition | inhibition of RIPK1 autophosphorylation [8]: dose-dependent inhibition
9 | CCOc1ccc(-c2cc3cc(-c4ccc(OC)c(OC)c4)cnc3[nH]2)cc1 [compound 8, 5-(3,4-dimethoxyphenyl)-2-(4-ethoxyphenyl)-1H-pyrrolo[2,3-b]pyridine] | 1500 | dose-dependent inhibition | –
10 | c1cnc2[nH]c(-c3ccc(OC4CCCC4)cc3)cc2c1 [compound 9, 2-(4-(cyclopentyloxy)phenyl)-1H-pyrrolo[2,3-b]pyridine] | 3000 | dose-dependent inhibition | –
11 | CCOc1ccc(-c2cc3cc(Br)cnc3[nH]2)cc1 [compound 10, 5-bromo-2-(4-ethoxyphenyl)-1H-pyrrolo[2,3-b]pyridine] | – | slight dose-dependent inhibition | –
